Experimental data from article PMC3698126, “MtnBD Is a Multifunctional Fusion Enzyme in the Methionine Salvage Pathway of Tetrahymena thermophila” (PLoS ONE, 2013).

Tests used:
B. subtilis MtnX = molecular target: T1, B. subtilis MtnX (Bacillus subtilis, UniProt O31667); assay: UV-visible spectral shift to […] nm and 1H-NMR; assay type: biochemical; settings: phosphatase reaction to DHK-MTPene; pH 8.0, 35°C; substrate made in situ by T. thermophila MtnB domain
T1 sequence (O31667 1-235): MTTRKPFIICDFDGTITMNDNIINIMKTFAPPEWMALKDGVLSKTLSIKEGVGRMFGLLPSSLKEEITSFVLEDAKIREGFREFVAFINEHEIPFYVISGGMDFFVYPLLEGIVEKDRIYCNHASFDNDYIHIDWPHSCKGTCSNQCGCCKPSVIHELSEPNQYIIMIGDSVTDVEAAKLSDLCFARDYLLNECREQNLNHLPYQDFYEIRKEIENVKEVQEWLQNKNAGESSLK

MtnB domain = molecular target: T2, MtnB domain (Tetrahymena thermophila, UniProt I7MAL0); assay: UV-visible and 1H-NMR product analysis; assay type: biochemical; settings: dehydratase/enolase to HK-MTPenyl-1-P; 5 mM MgCl2, pH 8.0, 35°C; substrate made in situ from MTR-1-P by MtnA; kcat only, no Km
T2 construct: gene TTHERM_00467500

Full-length MtnBD = molecular target: T3, Full-length MtnBD (Tetrahymena thermophila, UniProt I7MAL0); assay: UV-visible and 1H-NMR product analysis; assay type: biochemical; settings: dehydratase/enolase to HK-MTPenyl-1-P; 5 mM MgCl2, pH 8.0, 35°C; substrate made in situ from MTR-1-P by MtnA; kcat only, no Km
T3 construct: gene TTHERM_00467500
T3 sequence (I7MAL0 1-400): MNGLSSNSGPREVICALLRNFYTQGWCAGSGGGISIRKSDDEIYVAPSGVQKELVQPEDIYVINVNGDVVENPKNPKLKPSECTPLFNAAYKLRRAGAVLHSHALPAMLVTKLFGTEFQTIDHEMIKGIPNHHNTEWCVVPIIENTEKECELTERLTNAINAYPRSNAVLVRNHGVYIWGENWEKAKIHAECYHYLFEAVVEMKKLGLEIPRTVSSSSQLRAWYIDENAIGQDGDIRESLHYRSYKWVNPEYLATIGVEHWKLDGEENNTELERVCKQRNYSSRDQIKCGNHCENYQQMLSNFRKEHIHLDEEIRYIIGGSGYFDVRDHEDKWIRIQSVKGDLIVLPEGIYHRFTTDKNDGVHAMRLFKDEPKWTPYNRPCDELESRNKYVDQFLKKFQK

[1] = molecular target: Tetrahymena thermophila MtnBD, full-length, histidine-tagged recombinant protein (Tetrahymena thermophila); assay: native gel or EMSA; native-PAGE, 5-20% gradient polyacrylamide gel, non-denaturing conditions, 1 ug purified protein, mass estimated against native high molecular weight markers; oligomer size from native mass over calculated monomer mass
[2] = molecular target: MtnB domain of Tetrahymena thermophila MtnBD (Met1-Ser216), histidine-tagged recombinant protein (Tetrahymena thermophila); assay: as above

Question: `CSCCC(=O)C(O)=COP(=O)(O)O` [HK-MTPenyl-1-P] was tested. Which “UV-visible spectral shift to 310 nm and 1H-NMR” value (B. subtilis MtnX) did it give?
Answer: DHK-MTPene was obtained from the reaction of B. subtilis MtnX with HK-MTPenyl-1-P

Question: With `CSC[C@@H](O)[C@@H](O)C(=O)COP(=O)(O)O` [MTRu-1-P] as the compound, how does the “UV-visible and 1H-NMR product analysis” value (MtnB domain) read?
Answer: MtnB domain catalyzed the dehydration/enolization reactions to convert MTRu-1-P to HK-MTPenyl-1-P

Question: And the “UV-visible and 1H-NMR product analysis” value (Full-length MtnBD)?
Answer: T. thermophila MtnBD catalyzed the conversion of MTRu-1-P to HK-MTPenyl-1-P

Question: Which stoichiometry N [1] does the source give for “Tetrahymena thermophila MtnBD, full-length, histidine-tagged recombinant protein (enzyme)” here?
Answer: 6

Question: How did the stoichiometry N [2] turn out when “MtnB domain of Tetrahymena thermophila MtnBD (Met1-Ser216), histidine-tagged recombinant protein (domain or fragment)” was run?
Answer: 6
